Entries after “also recorded” stand apart in the source; their conditions may differ.
Columns and labels:
[1] = test system: TLR8-mediated TNF-α production in THP-1 cells; assay: R848-induced TNF-α production in differentiated THP-1 monocytes; format: cell-based, human; details: 10 μM
human TLR8 = biological target: T1, human TLR8 (Homo sapiens, UniProt Q9NR97); assay: SEAP reporter assay in HEK-Blue TLR8 cells, R848-induced TLR8 signaling; format: cell-based
T1 construct: expressed in transfected cells; host or cells: HEK-Blue Null1 cells, lentiviral infection
T1 sequence (Q9NR97 27-1041): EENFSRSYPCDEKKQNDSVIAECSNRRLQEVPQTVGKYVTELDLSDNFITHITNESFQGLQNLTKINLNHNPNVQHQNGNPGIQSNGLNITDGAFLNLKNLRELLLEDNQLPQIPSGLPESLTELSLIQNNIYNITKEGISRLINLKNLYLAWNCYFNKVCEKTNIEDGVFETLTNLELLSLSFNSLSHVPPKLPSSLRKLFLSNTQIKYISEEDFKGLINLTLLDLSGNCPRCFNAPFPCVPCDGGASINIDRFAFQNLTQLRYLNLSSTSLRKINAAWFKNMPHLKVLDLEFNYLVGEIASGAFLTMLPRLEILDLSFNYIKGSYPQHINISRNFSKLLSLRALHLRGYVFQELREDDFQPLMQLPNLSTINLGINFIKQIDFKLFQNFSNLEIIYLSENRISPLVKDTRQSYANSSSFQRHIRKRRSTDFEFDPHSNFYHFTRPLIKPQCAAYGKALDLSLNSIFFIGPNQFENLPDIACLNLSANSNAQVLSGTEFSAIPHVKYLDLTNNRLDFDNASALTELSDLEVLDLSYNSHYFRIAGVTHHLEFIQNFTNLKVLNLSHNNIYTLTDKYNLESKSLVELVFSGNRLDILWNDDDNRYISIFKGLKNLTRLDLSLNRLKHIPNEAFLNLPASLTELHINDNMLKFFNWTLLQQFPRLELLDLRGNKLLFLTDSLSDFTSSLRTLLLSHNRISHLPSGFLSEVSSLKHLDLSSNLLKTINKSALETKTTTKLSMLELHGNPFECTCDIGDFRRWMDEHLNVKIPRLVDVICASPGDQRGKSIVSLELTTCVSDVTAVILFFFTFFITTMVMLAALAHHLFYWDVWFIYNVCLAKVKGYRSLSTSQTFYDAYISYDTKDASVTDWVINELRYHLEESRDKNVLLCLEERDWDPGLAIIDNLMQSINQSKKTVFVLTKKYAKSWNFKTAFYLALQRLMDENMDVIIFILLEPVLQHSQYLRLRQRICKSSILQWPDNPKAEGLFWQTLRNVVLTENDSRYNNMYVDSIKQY
Experimental: SEAP reporter assay: HEK-Blue TLR8 cells were seeded in tissue culture treated 96-well plates with a density of 7.5×10^4 cells/well in DMEM media supplemented with 10% FBS (phosphatases deactivated with heat). […] Plates are then incubated in humidified incubators containing 5% CO2 at 37° C. for 24 h, after which, 30 μL of culture media was transfer to a new plate and 100 μL of Quanti-Blue (Invivogen) was added, the plate was then incubated at 37° C. till color change (30 min-1 h). Readout of absorbance at 620 nm was quantified using Beckman-Coulter DTX 880 Multimode Detector. […] SEAP assays for each sample were conducted with three biological replicates, each in triplicate.
To establish a robust high throughput assay for TLR8 inhibitors, the inventors first engineered a cell line stably overexpressing the human TLR8 whose activation can be reported by the Secreted Embryonic Alkaline Phosphatase (SEAP) assay. TLR8-overexpresing HEK-Blue cells were prepared by lentiviral infection of HEK-Blue Null1 cells that have null or low basal expression of endogenous TLR genes. […] The TLR8-mediated NF-κB activation can be assessed by measuring the SEAP activity.

[2] = test system: TNF-α production in PBMCs from an AOSD patient; assay: TNF-α level in PBMCs harvested from an AOSD patient; format: cell-based, human; details: negative control, 40 μM
Experimental: But there is a lack of appropriate rodent models because TLR8 is not functional in either mice or rats. Therefore, the TLR8 inhibitors of this disclosure were tested in human specimens harvested from patients with osteoarthritis (OA), rheumatoid arthritis (RA), and adult onset-Still's disease (AOSD). It is well established that TNF-α and IL-1β are key cytokines in the process of chronic joint inflammation in cartilage. Therefore, synovial cells were isolated from synovial tissue of patients who underwent joint replacement surgery due to severe OA. Previous studies have indicated these pathological tissues express both TLR7 and TLR8 with elevated production of various cytokines, contributing to extensive articular destruction and functional decline.

[3] = test system: TLR8-mediated TNF-α production in PBMC cells; assay: R848-induced TNF-α secretion in PBMCs; format: cell-based, human; details: 1 μg/mL R848; dose-dependent; 4a at 50 μM
Source text: Peripheral blood mononuclear cells (PBMCs) include lymphocytes (T cells, B cells, and NK cells), monocytes, and dendritic cells expressing various TLRs. TLR7 and TLR8 are both expressed on B cells and monocytes, while DC plasmacytoids (DCps) express only TLR7 and immature DCs (DC11c^+) express only TLR8.

[4] = test system: TNF-α production in PBMCs from RA patients; assay: TNF-α level in PBMCs harvested from RA patients; format: cell-based, human; details: negative control, up to 80 μM
[5] = test system: TLR8-mediated TNF-α and IL-8 mRNA; assay: RT-PCR of TNF-α and IL-8 mRNA in R848 treated HEK-Blue TLR8 cells; format: cell-based, human; details: negative control, 10 μM
Source text: R848-induced TLR8 activation results in increased production of the proinflammatory cytokines, such as TNF-α, IL-6 and IL-8.

[6] = 1(2H)-phthalazinone and quinoline derivatives in HEK-Blue hTLR8 cells
[7] = same column as E3, cell prints (nM), HEK-Blue hTLR8 cells

Compound | IC50 (human TLR8; [6]) [nM] | also measured
O=C(O)c1cnn2c(-c3cccc(C(F)(F)F)c3)ccnc12 [Compound 4a] | – | inhibition of R848-induced TNF-α production [1]: failed to show significant inhibition; inhibitory activity against TLR8 signaling (human TLR8; up to 20 μM): did not show any inhibitory activity; inhibitory activity on TNF-α level in PBMCs from an AOSD patient [2]: did not show notable inhibitory activity; R848-induced TNF-α secretion of PBMCs [3]: not; inhibition of TNF-α level in PBMCs from RA patients [4]: did not show significant inhibition; also recorded: did not show notable inhibitory activity; inhibition of R848-induced TNF-α and IL-8 mRNA levels [5]: negligible inhibition
Cc1cc(-c2nn(C)c(=O)c3ccccc23)ccc1O [Compound 30, 4-(4-Hydroxy-3-methylphenyl)-2-methyl-1(2H)-phthalazinone] | 330 ± 40 | –
CCn1nc(-c2ccc(O)c(C)c2)c2ccccc2c1=O [Compound 31, 4-(4-Hydroxy-3-methylphenyl)-2-ethyl-1(2H)-phthalazinone] | > 20000 | –
CCOc1ccc(-c2nn(CC)c(=O)c3ccccc23)cc1C [Compound 32, 4-(4-Ethoxyl-3-methylphenyl)-2-ethyl-1(2H)-phthalazinone] | > 20000 | –
O=c1c2ccccc2c(-c2ccccc2)nn1-c1ccccc1 [Compound 33, 2,4-Diphenyl-1(2H)-phthalazinone] | > 20000 | –
Cc1cc(-c2n[nH]c(=O)c3cccc(C)c23)ccc1O [Compound 34, 4-(4-Hydroxy-3-methylphenyl)-5-methyl-1(2H)-phthalazinone] | > 20000 | –
Cc1cc(-c2n[nH]c(=O)c3cccnc23)cc(C)c1O [Compound 35] | 13000 ± 2140 | –
Cc1cc(-c2ccnc3ccccc23)cc(C)c1O [Compound 36, 4-(3,5-Dimethyl-4-Hydroxyphenyl)quinoline] | – | IC50 (human TLR8; [7]): 25.5 ± 10.7 nM
Cc1cc(-c2ccnc3ccccc23)ccc1O [Compound 37, 4-(3-Methyl-4-Hydroxyphenyl)quinoline] | – | IC50 (human TLR8; [7]): 38.6 ± 5.75 nM
Cc1cc(-c2ncnc3ccccc23)ccc1O [Compound 38, 4-(3-Methyl-4-Hydroxyphenyl)quinazoline] | 350 ± 120 | –
Cc1cc(-c2cncc3ccccc23)ccc1O [Compound 39, 4-Isoquinolin-4-yl-2-methylphenol] | 160 ± 20 | –
Cc1cc(-c2nncc3ccccc23)cc(C)c1O [Compound 40, 1-(3,5-Dimethyl-4-Hydroxyphenyl)-phthalazine] | 11400 ± 360 | –
Cc1cc(-c2nncc3ccccc23)ccc1O [Compound 41, 1-(3-Methyl-4-Hydroxyphenyl)-phthalazine] | 6750 ± 1300 | –
Cc1cc(-c2cccc3ccccc23)cc(C)c1O [Compound 42, 1-(4-Hydroxy-3,5-dimethylphenyl)naphthalene] | 1220 ± 100 | –
Cc1cc(-c2cccc3ccccc23)ccc1O [Compound 43, 1-(4-Hydroxy-3-methylphenyl)naphthalene] | > 20000 | –
Cc1cc(-c2cnnc3ccccc23)ccc1O [Compound 45, 4-(4-Hydroxy-3-methylphenyl)-cinnolin] | 340 ± 20 | –
Cc1cc(-c2cn(C(=O)OC(C)(C)C)c3ccccc23)ccc1O [Compound 46, N-tert-butoxycarbonyl-3-(4-Hydroxy-3-methylphenyl)-indole] | > 20000 | –
Cc1cc(-c2c[nH]c3ccccc23)ccc1O [Compound 47, 3-(4-Hydroxy-3-methylphenyl)-indole] | 2800 ± 690 | –
Cc1cc(-c2n[nH]c3ccccc23)ccc1O [Compound 48, 3-(4-Hydroxy-3-methylphenyl)-1H-indazole] | > 20000 | –
Cc1cc(-c2ccnc3[nH]ccc23)ccc1O [Compound 49, 4-(4-Hydroxyl-3-methylphenyl)-7-azaindole] | 90 ± 30 | –
Cc1cc(-c2ccnc3cccnc23)ccc1O [Compound 50, 4-(4-Hydroxyl-3-methylphenyl)-1,5-naphthyridine] | 300 ± 70 | –
